Test results from article PMC12040169 (PLOS Biology, 2025).

Assay: in vitro
Conditions: human, hela cells, % viability

| SMILES | viability at 28.5 h, 10 µM |
| --- | --- |
| CC(=O)Nc1ccccc1-c1nc2ccccc2nc1OCC(=O)c1ccc(Cl)cc1 [CBK266269] | 93.6% |
| O=C(Nc1cc2nn(-c3ccccc3)nc2cc1Cl)c1ccc(-c2cccc([N+](=O)[O-])c2)o1 [CBK266271] | 94% |
| Cc1sc(NC(=S)NC(=O)c2ccco2)c(C(N)=O)c1C [CBK266272] | 98.9% |
| O=C(Nc1cccc(C(F)(F)F)c1)c1ccc(N2CCNCC2)c([N+](=O)[O-])c1 [CBK266274] | 100% |
| COc1ccc(Cl)cc1C(=O)O/N=C(\N)Cc1cccc2ccccc12 [CBK266275] | 98.3% |
| O=C(CSc1nnc(CCc2ccccc2)n1-c1ccc(Cl)cc1)c1ccccc1 [CBK266277] | 88.9% |
| O=C(Nc1ccccc1-c1nc2ccccc2s1)c1cc(Br)ccc1Cl [CBK266280] | 94.9% |
| Cc1ccc2oc(C(=O)Nc3sc4c(c3C(=O)NCC3CCCO3)CCC4)c(C)c2c1 (centres unmarked) [CBK266282] | 111% |
| Cc1nc(S)nc(O)c1Cc1ccc(C(=O)O)o1 [CBK266284] | 104% |
| Cc1nnc(N2C(=O)c3oc4ccccc4c(=O)c3C2c2ccc(OCc3ccccc3)cc2)s1 (centres unmarked) [CBK266287] | 94.9% |
| N#C/C(=C\c1ccc(-c2ccc(S(N)(=O)=O)cc2)o1)c1nc2ncc(Br)cc2[nH]1 [CBK266288] | 97.6% |
| CCn1c(SCC(=O)N2c3ccccc3Sc3ccccc32)nnc1C(C)Oc1ccccc1 (centres unmarked) [CBK266290] | 105% |
| c1csc(CSc2nnc3sc4ccccc4n23)c1 [CBK266291] | 87.9% |
| N#C/C(=C\c1ccc(N2CCOCC2)cc1)c1nc2ncc(Br)cc2[nH]1 [CBK266294] | 89.4% |
| N#C/C(=C\c1cn(-c2ccccc2)nc1-c1cccc(S(=O)(=O)N2CCCC2)c1)c1nc2ccccc2c(=O)[nH]1 [CBK266296] | 91.9% |
| Cc1cccc(OCC(=O)NC(=S)Nc2ccccc2N2CCCCC2)c1C [CBK266298] | 105% |
| CC(Oc1ccccc1)c1nnc(SCC(=O)Nc2ccc(Br)c(Cl)c2)n1C (centres unmarked) [CBK266299] | 113% |
| Cc1nnc(SCc2nnnn2-c2ccccc2)nc1O [CBK266302] | 101% |
| COc1nc(NCCc2ccc(OC)c(OC)c2)nc(OC)n1 [CBK266304] | 94.4% |
| Cc1cc2oc(C(=O)Nc3nc(-c4ccc(S(=O)(=O)N5CCCC5)cc4)cs3)c(C)c2cc1C [CBK266309] | 89.5% |
| Cc1ccc(S(=O)(=O)N2Cc3ccccc3CC2C(=O)Nc2sc3c(c2C#N)CCCC3)cc1 (centres unmarked) [CBK266313] | 97.9% |
| CC1CCN(S(=O)(=O)c2ccc3c(c2)oc(=O)c2cc(S(=O)(=O)N4CCC(C)CC4)ccc23)CC1 [CBK266314] | 100% |
| COc1cc(C(=O)N(Cc2ccco2)c2ccc(O)cc2)cc(OC)c1OC [CBK266315] | 102% |
| COc1cccc(C(=O)Nc2ccc(NC(=O)C3CC=CCC3C(=O)O)cc2)c1 (centres unmarked) [CBK266316] | 107% |
| Cc1cc(C)nc(NC(=N)NCCc2c[nH]c3ccccc23)n1 [CBK266321] | 70.2% |
| CCOc1ccccc1Cn1c2ccccc2c2nc3ccccc3nc21 [CBK266323] | 101% |
| COC(=O)c1ccccc1NC(=O)CSc1nnc(-c2ccncc2)[nH]1 [CBK266324] | 96.4% |

| SMILES | viability at 28.5 h, 10 µM |
| --- | --- |
| O=C(CSc1nnc(-c2cccnc2)o1)c1ccc(Oc2ccccc2)cc1 [CBK266327] | 88.1% |
| OCCCNC(c1ccccc1)c1ccc(O)cc1 (centres unmarked) [CBK266329] | 97.2% |
| O=C(NCC1CCCO1)c1ccc(NC(=O)C2CC=CCC2C(=O)O)cc1 (centres unmarked) [CBK266335] | 95% |
| N=c1n(CCN2CCCCC2)c2ccccc2n1CC(O)COc1ccc(Cl)cc1Cl (centres unmarked) [CBK266336C] | 31% |
| COC(=O)c1ccccc1NC(=O)CSc1nnc(-c2ccccc2)[nH]1 [CBK266338] | 96.7% |
| Cc1[nH]c2ccccc2c1C(=O)CSc1nc2ccccc2o1 [CBK266339] | 100% |
| O=C(CSc1ncccc1C(=O)O)Nc1ccc(Oc2ccccc2)cc1 [CBK266340] | 106% |
| CCOc1ccc(S(=O)(=O)N2CCN(S(=O)(=O)c3cccc([N+](=O)[O-])c3)CC2)cc1 [CBK266341] | 95.9% |
| O=[N+]([O-])c1ccc(NCCNc2nc3ccccc3nc2N2CCOCC2)cc1 [CBK266342] | 107% |
| COc1ccc2c(c1)c(=O)oc1cc(OCC(=O)N3CCc4ccccc4C3)ccc12 [CBK266346] | 110% |
| Cc1ccnc(SCC(=O)Nc2sc3c(c2C(=O)Nc2ccccc2)CCCC3)n1 [CBK266348] | 106% |
| CC(=O)Nc1ccc(C(=O)CSc2nnc(-c3ccncc3)o2)cc1 [CBK266349] | 105% |
| Cc1ccc(S(=O)(=O)NC(C)(C)CSc2nnc(N)s2)cc1 [CBK266350] | 97.1% |
| Cc1cc2oc(C(=O)Nc3sc4c(c3C(=O)NC3CCS(=O)(=O)C3)CCC(C)C4)c(C)c2cc1C (centres unmarked) [CBK266351] | 92.2% |
| O=C(O)c1ccc(CSc2nnc(-c3ccncc3)o2)cc1 [CBK266352] | 98.5% |
| O=C(NC1=NC2CCCCC2N1)c1ccccc1 (centres unmarked) [CBK266354] | 103% |
| O=C1c2ccccc2C(=O)N1CCc1nc2ccccc2c(=O)n1-c1nc2ccccc2s1 [CBK266358] | 122% |
| Cc1ccc(S(=O)(=O)NC(C)(C)CSc2ccccn2)cc1 [CBK266360] | 86.1% |
| COc1ccc(S(=O)(=O)N2Cc3ccccc3CC2C(=O)Nc2sc3c(c2C#N)CCCC3)cc1 (centres unmarked) [CBK266363] | 116% |
| Cc1cccc(-n2c(CCc3ccccc3)nnc2SCC(=O)c2ccccc2)c1 [CBK266369] | 94% |
| CC1CCc2c(sc(NC(=S)NC(=O)c3ccc4c(c3)OCCO4)c2C(N)=O)C1 (centres unmarked) [CBK266370] | 101% |
| COc1ccccc1NC(=O)CCSc1nc(C)cc(C)n1 [CBK266371] | 103% |
| Nc1nnc(SC2c3cccc4cccc(c34)C2NS(=O)(=O)c2ccc(Cl)cc2)s1 (centres unmarked) [CBK266373] | 99.7% |
| N#Cc1c(NC(=O)CSc2nnc(-c3ccncc3)o2)sc2c1CCCC2 [CBK266374] | 99.2% |
| Cc1ccc(OCC(O)Cn2c(=N)n(CCN3CCCCC3)c3ccccc32)cc1 (centres unmarked) [CBK266375C] | 98.9% |
| CS(=O)(=O)CCC(C(=O)O)N1C(=O)c2ccc(Oc3ccc(Cl)cc3)cc2C1=O (centres unmarked) [CBK266377] | 92% |
| O=C(Nc1sc2c(c1C(=O)NCCc1ccccc1)CCC2)c1sc2ccccc2c1Cl [CBK266379] | 105% |

| SMILES | viability at 28.5 h, 10 µM |
| --- | --- |
| Cn1c(/C(C#N)=C\c2ccc(-c3ccc(S(N)(=O)=O)cc3)o2)nc2ccccc21 [CBK266380] | 95% |
| O=C(CC1Nc2ccccc2NC1=O)Nc1ccc(F)c(Cl)c1 (centres unmarked) [CBK266381] | 97% |
| Cc1cc(C)cc(NC(=O)CC2Sc3ccccc3NC2=O)c1 (centres unmarked) [CBK266384] | 94% |
| COc1ccc(Cc2nc3ccccc3n2CCc2ccccc2)cc1 [CBK266385] | 95.2% |
| O=C(CSc1nnc(-c2ccco2)o1)c1ccc2c(c1)OCCO2 [CBK266387] | 105% |
| C=CCn1c(NCc2ccccc2NS(=O)(=O)c2ccc(C)cc2)nc2ccccc21 [CBK266393] | 111% |
| CCOC(=O)c1ccc(COc2cccc(-c3cnc4ccccc4n3)c2)cc1 [CBK266395] | 94.2% |
| Nc1ccc(Oc2nc(Oc3ccc(N)cc3)c(F)c(Oc3ccc(N)cc3)c2F)cc1 [CBK266397C] | 110% |
| O=C(Nc1ccccc1N1CCN(C(=O)c2ccc(Cl)cc2)CC1)c1ccc(-c2cccc([N+](=O)[O-])c2)o1 [CBK266398] | 93.3% |
| CC1CCCN(c2ccc(NC(=O)c3cccs3)cc2[N+](=O)[O-])C1 (centres unmarked) [CBK266402] | 102% |
| Cc1ccc(S(=O)(=O)N(CC(=O)Nc2cccnc2)c2cccc([N+](=O)[O-])c2)cc1 [CBK266404] | 86% |
| O=C(CCC1CCCC1)Nc1nnc[nH]1 [CBK266406] | 100% |
| COc1ccc(-c2nc3cc(C(C)C)ccc3o2)cc1NC(=O)Cc1ccc(Cl)cc1 [CBK266409] | 96.9% |
| Cn1cc(C(c2ccccc2OCC(=O)O)c2cn(C)c3ccccc23)c2ccccc21 [CBK266410] | 112% |
| C=CCSc1nnc(-c2ccccc2NC(=O)CC)c(O)n1 [CBK266411] | 115% |
| Cc1nc(-c2ccccc2)sc1C(=O)C1=C(O)C(=O)N(CCN(C)C)C1c1ccccc1 (centres unmarked) [CBK266415] | 100% |
| O=C(O)Cn1c2ccc(Br)cc2c2nc3ccccc3nc21 [CBK266416] | 97.1% |
| NS(=O)(=O)c1ccc(NC2=NC(=O)C(CC(=O)Nc3ccccc3)S2)cc1 (centres unmarked) [CBK266417] | 98.2% |
| COc1cccc(C(=O)C2=C(O)C(=O)N(CCCn3ccnc3)C2c2cccc(F)c2)c1 (centres unmarked) [CBK266419] | 107% |
| COc1cccc2cc(C(=O)C3=C(O)C(=O)N(CCCN4CCOCC4)C3c3ccc(C)cc3)oc12 (centres unmarked) [CBK266420] | 106% |
| COc1cc(CNn2cnnc2S)ccc1OCC(=O)NC(C)(C)C [CBK266429] | 92.5% |
| O=C(COc1ccc(S(=O)(=O)NC2CCCC2)cc1)Nc1ccc2c(c1)OCCO2 [CBK266431] | 101% |
| O=C(O)c1ccc(NC(=O)c2cn(-c3ccccc3)nc2-c2cc3ccccc3oc2=O)cc1 [CBK266432] | 99.8% |
| COc1ccc2c(c1)C(C(C(=O)O)C(=O)O)c1ccccc1O2 (centres unmarked) [CBK266435] | 93.8% |
| Cc1nnc(SCc2nc(N)nc(Nc3ccccc3)n2)s1 [CBK266436] | 109% |
| COCCn1c(C)cc(C(=O)CSc2cc(C)c3ccccc3n2)c1C [CBK266437] | 70.3% |

Same assay, conditions: human, hela cells, % viability, bulk resorufin, single well

| SMILES | viability at 28.5 h, 10 µM |
| --- | --- |
| Cc1ccccc1N1C(=O)NC(=O)C(CCc2ccncc2)(Cc2ccc3c(c2)OCO3)C1=O (centres unmarked) [CBK266289] | 92% |
| O=C1NC(=O)C(CCc2ccncc2)(Cc2ccc3c(c2)OCO3)C(=O)N1CCc1ccccc1 (centres unmarked) [CBK266307] | 105% |
| O=C1NC(=O)C(CCc2ccccn2)(Cc2ccc3c(c2)OCO3)C(=O)N1CCc1ccccc1 (centres unmarked) [CBK266392] | 98.7% |
